Several values for one entry are separate records, joined by “and”; a condition that tells them apart may be missing. Identical values can stand only once. Square brackets hold non-standard residues; d marks the D form. Peptide text beside a SMILES is read from it.
Columns and labels:
Jurkat cells = test: Flow cytometry of apoptosis, Annexin V and PI staining; type: cell-based, human; details: XQ2B +
Protocol: Cell death was measured by Annexin V-FITC/PI Apoptosis Kit (Elabscience) according to the manufacturer’s instructions. Data were acquired on an Attune NxT (ThermoFisher) flow cytometer and analyzed in FlowJo.
Supplementary Fig. 8. XQ2B inhibits cGAS induced autophagy and cell death. (a) L929 cells were pretreated […]
measured by CCK8 assay. p = 0.0022. (c, d) Jurkat cells were treated with DMSO or XQ2B (5 μM), followed by stimulation with ISD (2ug/ml) for 4 h. Flow cytometric analysis of apoptosis assessed by Annexin V and PI staining.
Analysis strategy shown was used to determine the Annexin V+ or PI+ population (c). Numbers in quadrants present […]
percentages (d). p = 0.0006. […]
by HSV-1 infection for indicated titer and periods. Induction of HSV-1(UL5) mRNA was measured by qPCR. p = 0.0018 (1×10^4 pfu); p < 0.0001 (2×10^4 pfu). Data are representative of three independent experiments with similar results in (a), or three independent experiments in (b, d, e). (Data are presented as mean ± SD, n = 3 independent […]
are provided as a Source Data file.

THP1-Lucia ISG cells = test: Luciferase reporter assay, dsDNA stimulation; type: cell-based, human; set-up: Type I interferon response, luciferase activity, Fig. 1c / luciferase activity, Fig. 2a: scale not given here
Description: To screen direct cGAS inhibitors targeting protein-DNA interface from our developed focused library of macrocyclic peptides, we applied an RNA-based fluorescent biosensor for 2’,3’-cGAMP to detect cGAS activity in vitro (Supplementary Fig. 1a)[49]. The formation of 2’,3’-cGAMP from ATP and GTP was catalyzed by recombinant human cGAS enzyme (hcGAS-ΔN, residues 147–522, Supplementary Fig. 1b) in the presence of ISD (interferon stimulatory DNA, a 45-bp dsDNA), which was readily quantified by the RNA-based fluorescent biosensor and was further confirmed by ion exchange chromatography (Supplementary Fig. 1c). […] Subsequently, a total of 90 macrocyclic peptides were screened at a concentration of 20 μM (Fig. 1a and Supplementary Fig. 1e), and 4 hits (XQ2, XQ8, XQ19, and XQ46) were obtained for further testing at a cut-off of 40% inhibition (Supplementary Table 1). To evaluate the inhibitory effect of the hits against cGAS in cells, we employed real-time quantitative PCR (qPCR) to examine mRNA levels of IFNΒ1 in THP1 cells. The reported cGAS inhibitor RU.521 was used as the positive control, and the non-active peptide XQ28 in the screening assay was used as the negative control. […] The inhibition of cGAS by these hits was further confirmed in the reporter cell line THP1-Lucia ISG (Invivogen) that expresses secreted luciferase induced by an IRF3-inducible ISG54 promoter (Fig. 1c). The discrepancy between the inhibitory effect of the hits in protein and cellular assays may be attributed to their different cellular permeability.
THP1-Lucia ISG cells (Invivogen) were seeded into a 96-well plate and incubated with RU.521 (Invivogen) or XQ2 for the indicated time, and then transfected with dsDNA by lipofectamine 2000 (Invitrogen) or infected by HSV-1 with the indicated titer for 24 h. The supernatant was collected and 50 μL QUANTI-Luc Luciferase reagent (Invivogen) was added to 20 μL supernatants per well, and luciferase luminescence was detected by a microplate reader (BioTek Synergy H1) immediately.

in vitro = details: mouse, Cell viability (Fig. S2e)
Protocol: (§1) Cell viability was measured by cell counting kit-8 (TargetMol) according to the manufacturer’s instructions. […]
(§2) (e-g) THP1 cells (e), L929 cells (f) and RAW264.7 cells (g) were exposed to the indicated doses of XQ2 for 48h, the cell viability was measured by CCK8 assay. Data are representative of three independent experiments in (a-g). (Data are presented as mean ± SD, n = 3 independent samples in (a-g), **p < 0.01, ***p < 0.001, ****p < 0.0001 using one-way ANOVA with Dunnett’s post hoc test).
(§3) Source data are provided as a Source Data file.

L929 cells = test: in vitro; details: for Cell viability (Fig. S2e): L929 (48h)
Protocol: as §1, §2, §3

RAW264.7 cells = test: in vitro; details: for Cell viability (Fig. S2e): RAW264.7 (48h)
Protocol: as §1, §2, §3

[1] = test system: Cy5-ISD (45-bp dsDNA ISD); test: Microscale thermophoresis (MST) with dsDNA; type: binding; details: Cy5-ISD 10 nM
Protocol: Excitation was optimized by varying the power to obtain fluorescence intensities above 200 counts. Data were analyzed by using the MO.Affinity Analysis software.

[2] = test system: cGAS-knockout Hela cells reconstituted with EGFP-hcGAS-FL; test: Live-cell imaging of cGAS-DNA puncta; type: cell-based, human; details: 10 μM, 4 h
Protocol: cGAS-knockout Hela cells reconstituted with EGFP-tagged full-length human cGAS (EGFP-hcGAS-FL) were obtained by transfecting pEGFP-C2-hcGAS-FL recombinant plasmid, and were seeded into 20-mm glass-bottom cell culture dish (NEST). Cell culture media was replaced with fresh medium for 1 h, then cells were stimulated by transfection of ISD by lipofectamine 2000 (Invitrogen) after DMSO or XQ2 (10 μM) treatment for the indicated time. The cells were rinsed three times with PBS, and live-cell imaging was performed by using Nikon A1R+ confocal microscope with a 40× oil objective, Nikon A1 camera, and X-Cite 120LED laser. Images were analyzed by FIJI software.

Hela cells = test: HSV-1 cytopathogenic effect, CCK-8 viability (rebuttal Fig. R1); type: cell-based, human; details: 10 μM
Protocol: We tested the effect of XQ2 on human cervical cancer
HSV-1 infection given that epithelial cells are generally weak responders of cGAS-
cells and THP1 cells were pretreated for 3 h with DMSO or XQ2 (10 μM), followed by
the indicated titer of HSV-1 infection. The cell v iability was measured by CCK-8 assay.

**Q.** Which results are given for CC(C)C[C@@H]1NC(=O)[C@H](CCCNC(=N)N)NC(=O)[C@H](C(C)C)NC(=O)[C@@H]2CCCN2C(=O)[C@@H](Cc2ccccc2)NC(=O)[C@H](CC(C)C)NC(=O)[C@H](CCCNC(=N)N)NC(=O)[C@H]([C@@H](C)O)NC(=O)[C@H](C)NC(=O)[C@@H](Cc2ccccc2)NC1=O [XQ2B] (cyclo([dF]ATRL[dF]PVRL))?
**A.** Induced cell death(%) (Fig. S8d) (Jurkat cells; ISD +): 18.8% and 19.1% and 18.5%; Induced cell death(%) (Fig. S8d) (Jurkat cells; ISD -): 3.9% and 3.8%

**Q.** With CC(C)C[C@@H]1NC(=O)[C@H](CCCNC(=N)N)NC(=O)[C@H](C(C)C)NC(=O)[C@@H]2CCCN2C(=O)[C@@H](Cc2ccccc2)NC(=O)[C@H](CC(C)C)NC(=O)[C@H](CCCNC(=N)N)NC(=O)[C@H](C(C)C)NC(=O)[C@H](C)NC(=O)[C@@H](Cc2ccccc2)NC1=O [XQ2, Cyclo (LfAVRLfPVR)] (cyclo(L[dF]AVRL[dF]PVR)) as the molecule, how does the “dsDNA-induced luciferase reporter signal” value (THP1-Lucia ISG cells) read?
**A.** inhibited dsDNA-induced signaling in THP1 cells in a dose-dependent manner with an inhibitory activity comparable to that of RU.521

**Q.** What about the “luciferase activity, Fig. 2a” value (THP1-Lucia ISG cells; Mock (no dsDNA), compound 10 μM, replicate values) of the same molecule?
**A.** 0.1339 and 0.107 and 0.1281

**Q.** And the “luciferase activity, Fig. 2a” value (THP1-Lucia ISG cells; Mock, 1.25 μM)?
**A.** 0.09057 and 0.08624 and 0.1133

**Q.** And the “luciferase activity, Fig. 2a” value (THP1-Lucia ISG cells; Mock, 2.5 μM)?
**A.** 0.08177 and 0.0892 and 0.09714

**Q.** What about the “luciferase activity, Fig. 2a” value (THP1-Lucia ISG cells; Mock, 5 μM) of the same molecule?
**A.** 0.1148 and 0.09368 and 0.09512

**Q.** What about the “luciferase activity, Fig. 2a” value (THP1-Lucia ISG cells; dsDNA 24 h, 1.25 μM) of the same molecule?
**A.** 0.7893 and 0.9483 and 1.24

**Q.** And the “luciferase activity, Fig. 2a” value (THP1-Lucia ISG cells; dsDNA 24 h, 2.5 μM)?
**A.** 1.035 and 1.02 and 0.8001

**Q.** And the “luciferase activity, Fig. 2a” value (THP1-Lucia ISG cells; dsDNA 24 h, 5 μM)?
**A.** 0.8667 and 0.7097 and 0.78

**Q.** What about the “luciferase activity, Fig. 2a” value (THP1-Lucia ISG cells; dsDNA 24 h, compound 10 μM, 3 h pretreatment, replicate values) of the same molecule?
**A.** 0.4481 and 0.3329 and 0.2712

**Q.** And the “Type I interferon response, luciferase activity, Fig. 1c” value (THP1-Lucia ISG cells; dsDNA 24 h, replicate values)?
**A.** 0.5575 and 0.4465 and 0.4391

**Q.** And the viability at 48 h, 0.23 µM (in vitro; L929 cells, L929 (48h), XQ2 0.23 μM)?
**A.** 108%

**Q.** And the viability at 48 h, 0.47 µM (in vitro; L929 cells, L929 (48h), XQ2 0.47 μM)?
**A.** 90.1%

**Q.** And the viability at 48 h, 0.94 µM (in vitro; L929 cells, L929 (48h), XQ2 0.94 μM)?
**A.** 83.6%

**Q.** What about the viability at 48 h, 1.88 µM (in vitro; L929 cells, L929 (48h), XQ2 1.88 μM) of the same molecule?
**A.** 85.4%

**Q.** What about the viability at 48 h, 3.75 µM (in vitro; L929 cells, L929 (48h), XQ2 3.75 μM) of the same molecule?
**A.** 90%

**Q.** And the viability at 48 h, 7.5 µM (in vitro; L929 cells, L929 (48h), XQ2 7.5 μM)?
**A.** 93.1%

**Q.** And the viability at 48 h, 15 µM (in vitro; L929 cells, L929 (48h), XQ2 15 μM)?
**A.** 86.3%

**Q.** And the viability at 48 h, 0.16 µM (in vitro; RAW264.7 cells, RAW264.7 (48h), XQ2 0.16 μM)?
**A.** 100%

**Q.** And the viability at 48 h, 0.31 µM (in vitro; RAW264.7 cells, RAW264.7 (48h), XQ2 0.31 μM)?
**A.** 102%

**Q.** And the viability at 48 h, 0.63 µM (in vitro; RAW264.7 cells, RAW264.7 (48h), XQ2 0.63 μM)?
**A.** 104%

**Q.** What about the viability at 48 h, 1.25 µM (in vitro; RAW264.7 cells, RAW264.7 (48h), XQ2 1.25 μM) of the same molecule?
**A.** 104%

**Q.** And the viability at 48 h, 2.5 µM (in vitro; RAW264.7 cells, RAW264.7 (48h), XQ2 2.5 μM)?
**A.** 104%

**Q.** And the viability at 48 h, 5 µM (in vitro; RAW264.7 cells, RAW264.7 (48h), XQ2 5 μM)?
**A.** 102%

**Q.** And the viability at 48 h, 10 µM (in vitro; RAW264.7 cells, RAW264.7 (48h), XQ2 10 μM)?
**A.** 103%

**Q.** And the “Cell viability (Fig. S2e)” value (L929 cells; XQ2 0.23 μM)?
**A.** 110.662 and 106.618

**Q.** And the “Cell viability (Fig. S2e)” value (L929 cells; XQ2 0.47 μM)?
**A.** 92.2794 and 86.3971

**Q.** What about the “Cell viability (Fig. S2e)” value (L929 cells; XQ2 0.94 μM) of the same molecule?
**A.** 87.1324 and 89.2157

**Q.** And the “Cell viability (Fig. S2e)” value (L929 cells; XQ2 1.88 μM)?
**A.** 84.4363 and 91.299

**Q.** What about the “Cell viability (Fig. S2e)” value (L929 cells; XQ2 3.75 μM) of the same molecule?
**A.** 94.6078 and 92.0343

**Q.** What about the “Cell viability (Fig. S2e)” value (L929 cells; XQ2 7.5 μM) of the same molecule?
**A.** 92.2794 and 92.1569

**Q.** And the “Cell viability (Fig. S2e)” value (L929 cells; XQ2 15 μM)?
**A.** 85.049 and 94.6078

**Q.** What about the “cytotoxicity” value (L929 cells; L929, 48h) of the same molecule?
**A.** no cytotoxicity

**Q.** What about the “Cell viability (Fig. S2e)” value (RAW264.7 cells; XQ2 0.16 μM) of the same molecule?
**A.** 99.8864 and 99.6917

**Q.** What about the “Cell viability (Fig. S2e)” value (RAW264.7 cells; XQ2 0.31 μM) of the same molecule?
**A.** 112.786 and 105.825

**Q.** And the “Cell viability (Fig. S2e)” value (RAW264.7 cells; XQ2 0.63 μM)?
**A.** 111.812 and 107.48

**Q.** What about the “Cell viability (Fig. S2e)” value (RAW264.7 cells; XQ2 1.25 μM) of the same molecule?
**A.** 113.808 and 104.608

**Q.** What about the “Cell viability (Fig. S2e)” value (RAW264.7 cells; XQ2 2.5 μM) of the same molecule?
**A.** 105.825 and 105.241

**Q.** What about the “Cell viability (Fig. S2e)” value (RAW264.7 cells; XQ2 5 μM) of the same molecule?
**A.** 107.821 and 104.219

**Q.** And the “Cell viability (Fig. S2e)” value (RAW264.7 cells; XQ2 10 μM)?
**A.** 108.843 and 106.117

**Q.** What about the “cytotoxicity” value (RAW264.7 cells; RAW264.7, 48h) of the same molecule?
**A.** no cytotoxicity

**Q.** And the “binding with ISD, MST” value [1]?
**A.** no binding of XQ2 with ISD

**Q.** What about the “puncta formation of EGFP-cGAS with ISD” value [2] of the same molecule?
**A.** markedly inhibited the puncta formation of EGFP-cGAS with ISD

**Q.** What about the “HSV-1 cytopathogenic effect in Hela cells” value (Hela cells) of the same molecule?
**A.** further enhanced the CPE
